From ChEMBL document CHEMBL1132959, “Design of potent dicyclic (1-5/4-10) gonadotropin releasing hormone (GnRH) antagonists” (J Med Chem, 2000)
Each block holds one compound with its values, some of them ahead of it.

Tests used:
[1] = molecular target: T1, Gonadotropin-releasing hormone receptor (Rattus norvegicus, UniProt P30969); assay: Affinity for rat gonadotrophin releasing hormone (GnRH) receptor using HEK293 cells transfected with rat Gonadotropin-releasing hormone receptor; assay type: cell-based; conditions: hek293
T1 sequence (P30969 whole entry): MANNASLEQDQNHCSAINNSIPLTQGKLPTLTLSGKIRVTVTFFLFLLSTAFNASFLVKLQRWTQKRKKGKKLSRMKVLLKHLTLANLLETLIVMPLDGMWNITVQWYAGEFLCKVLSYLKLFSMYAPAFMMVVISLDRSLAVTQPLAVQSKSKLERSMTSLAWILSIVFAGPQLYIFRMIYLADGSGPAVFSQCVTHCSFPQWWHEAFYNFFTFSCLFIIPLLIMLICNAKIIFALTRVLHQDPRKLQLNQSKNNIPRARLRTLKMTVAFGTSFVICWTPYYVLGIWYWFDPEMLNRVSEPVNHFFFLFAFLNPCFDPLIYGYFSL

Rattus norvegicus [2] = species: Rattus norvegicus; assay: Antiovulatory potency at 10 ug/rat expressed as rats ovulating by total no. of rats (4/8); assay type: functional
Rattus norvegicus [3] = species: Rattus norvegicus; assay: Antiovulatory potency at 25 ug/rat expressed as rats ovulating by total no. of rats (1/5); assay type: functional
Rattus norvegicus [4] = species: Rattus norvegicus; assay: Antiovulatory potency at 5 ug/rat expressed as rats ovulating by total no. of rats (3/4); assay type: functional
Rattus norvegicus [5] = species: Rattus norvegicus; assay: Antiovulatory potency at 1000 ug/rat expressed as rats ovulating by total no. of rats (5/5); assay type: functional
Rattus norvegicus [6] = species: Rattus norvegicus; assay: Antiovulatory potency at 100 ug/rat expressed as rats ovulating by total no. of rats (0/8); assay type: functional
Rattus norvegicus [7] = species: Rattus norvegicus; assay: Antiovulatory potency at 25 ug/rat expressed as rats ovulating by total no. of rats (4/4); assay type: functional
Rattus norvegicus [8] = species: Rattus norvegicus; assay: Antiovulatory potency at 50 ug/rat expressed as rats ovulating by total no. of rats (4/8); assay type: functional
Rattus norvegicus [9] = species: Rattus norvegicus; assay: Antiovulatory potency at 500 ug/rat expressed as rats ovulating by total no. of rats (5/9); assay type: functional
Rattus norvegicus [10] = species: Rattus norvegicus; assay: Antiovulatory potency at 250 ug/rat expressed as rats ovulating by total no. of rats (1/5); assay type: functional
Rattus norvegicus [11] = species: Rattus norvegicus; assay: Antiovulatory potency at 10 ug/rat expressed as rats ovulating by total no. of rats (5/5); assay type: functional
Rattus norvegicus [12] = species: Rattus norvegicus; assay: Antiovulatory potency at 500 ug/rat expressed as rats ovulating by total no. of rats (4/10); assay type: functional
Rattus norvegicus [13] = species: Rattus norvegicus; assay: Antiovulatory potency at 25 ug/rat expressed as rats ovulating by total no. of rats (0/3); assay type: functional
Rattus norvegicus [14] = species: Rattus norvegicus; assay: Antiovulatory potency at 10 ug/rat expressed as rats ovulating by total no. of rats (2/8); assay type: functional
Rattus norvegicus [15] = species: Rattus norvegicus; assay: Antiovulatory potency at 1000 ug/rat expressed as rats ovulating by total no. of rats (3/3); assay type: functional
Rattus norvegicus [16] = species: Rattus norvegicus; assay: Antiovulatory potency at 50 ug/rat expressed as rats ovulating by total no. of rats (0/5); assay type: functional
Rattus norvegicus [17] = species: Rattus norvegicus; assay: Antiovulatory potency at 250 ug/rat expressed as rats ovulating by total no. of rats (7/7); assay type: functional

SMILES: CC(C)C[C@@H]1NC(=O)[C@@H](Cc2ccc3ccccc3c2)NC(=O)[C@H](CCCN=C(N)N)NC(=O)[C@H](C)NC(=O)[C@@H](Cc2cccnc2)NC(=O)[C@@H](Cc2ccc(Cl)cc2)NC(=O)[C@@H](Cc2ccc3ccccc3c2)NC(=O)CCC(=O)NCCCC[C@@H](C(=O)N2CCC[C@H]2C(=O)N[C@H](C)C(N)=O)NC1=O
Ovulating rats (Rattus norvegicus [5]): 5

SMILES: CC(=O)N[C@H]1CC(=O)NCC(=O)NCC[C@H]2NC(=O)[C@H](CC(=O)NC[C@@H](C(N)=O)NC(=O)[C@@H]3CCCN3C(=O)[C@H](CCCN=C(N)N)NC(=O)[C@H](CC(C)C)NC(=O)[C@@H](Cc3ccc4ccccc4c3)NC2=O)NC(=O)[C@@H](Cc2c[nH]c3ccccc23)NC(=O)[C@@H](Cc2ccc(Cl)cc2)NC1=O
Ovulating rats (Rattus norvegicus [6]): 0
Ovulating rats (Rattus norvegicus [7]): 4
Ovulating rats (Rattus norvegicus [8]): 4

SMILES: CC(=O)N[C@H](Cc1ccc2ccccc2c1)C(=O)N[C@@H]1CCC(=O)NCCCC[C@@H](C(=O)N2CCC[C@H]2C(=O)N[C@H](C)C(N)=O)NC(=O)[C@H](CC(C)C)NC(=O)[C@@H](Cc2ccc3ccccc3c2)NC(=O)[C@H](CCCN=C(N)N)NC(=O)[C@H](C)NC(=O)[C@@H](Cc2cccnc2)NC1=O
Ovulating rats (Rattus norvegicus [15]): 3

SMILES: CC(=O)N[C@H]1CCC(=O)NCCCC[C@@H]2NC(=O)[C@H](CC(C)C)NC(=O)[C@@H](Cc3ccc4ccccc4c3)NC(=O)[C@H](CCCN=C(N)N)NC(=O)[C@H](CC(=O)NC[C@H](C(N)=O)NC(=O)[C@@H]3CCCN3C2=O)NC(=O)[C@@H](Cc2cccnc2)NC(=O)[C@H](Cc2ccc(Cl)cc2)NC1=O
Ki [1]: 1.1 nM
Ovulating rats (Rattus norvegicus [16]): 0
Ovulating rats (Rattus norvegicus [17]): 7

The next lines start with results.

Ki [1]: 0.76 nM
SMILES: CC(=O)N[C@@H]1CCC(=O)NCCC(=O)NC[C@H]2NC(=O)[C@@H](CC(=O)NC[C@H](C(N)=O)NC(=O)[C@H]3CCCN3C(=O)[C@H](CCCN=C(N)N)NC(=O)[C@@H](CC(C)C)NC(=O)[C@@H](Cc3ccc4ccccc4c3)NC2=O)NC(=O)[C@@H](Cc2c[nH]c3ccccc23)NC(=O)[C@H](Cc2ccc(Cl)cc2)NC1=O
Ovulating rats (Rattus norvegicus [2]): 4
Ovulating rats (Rattus norvegicus [3]): 1
Ovulating rats (Rattus norvegicus [4]): 3

Ki [1]: 4.8 nM
SMILES: CC(=O)N[C@@H]1CC(=O)NC[C@@H]2NC(=O)[C@@H](CC(=O)NC[C@H](C(N)=O)NC(=O)[C@H]3CCCN3C(=O)[C@H](CCCN=C(N)N)NC(=O)[C@@H](CC(C)C)NC(=O)[C@@H](Cc3ccc4ccccc4c3)NC2=O)NC(=O)[C@@H](Cc2c[nH]c3ccccc23)NC(=O)[C@H](Cc2ccc(Cl)cc2)NC1=O
Ovulating rats (Rattus norvegicus [9]): 5
Ovulating rats (Rattus norvegicus [10]): 1

Ki [1]: 1.6 nM
SMILES: CC(=O)N[C@@H]1CCC(=O)N[C@@H](C)C(=O)NCC[C@H]2NC(=O)[C@@H](CC(=O)NC[C@H](C(N)=O)NC(=O)[C@H]3CCCN3C(=O)[C@H](CCCN=C(N)N)NC(=O)[C@@H](CC(C)C)NC(=O)[C@@H](Cc3ccc4ccccc4c3)NC2=O)NC(=O)[C@@H](Cc2c[nH]c3ccccc23)NC(=O)[C@H](Cc2ccc(Cl)cc2)NC1=O
Ovulating rats (Rattus norvegicus [11]): 5

Ki [1]: 0.25 nM
SMILES: CC(=O)N[C@H]1CSSC[C@H]2NC(=O)[C@@H](CC(=O)NC[C@H](C(N)=O)NC(=O)[C@H]3CCCN3C(=O)[C@H](CCCN=C(N)N)NC(=O)[C@@H](CC(C)C)NC(=O)[C@@H](Cc3ccc4ccccc4c3)NC2=O)NC(=O)[C@@H](Cc2c[nH]c3ccccc23)NC(=O)[C@H](Cc2ccc(Cl)cc2)NC1=O
Ovulating rats (Rattus norvegicus [12]): 4

Ki [1]: 0.49 nM
SMILES: CC(=O)N[C@@H]1CC(=O)NCC(=O)NC[C@H]2NC(=O)[C@@H](CC(=O)NC[C@H](C(N)=O)NC(=O)[C@H]3CCCN3C(=O)[C@H](CCCN=C(N)N)NC(=O)[C@@H](CC(C)C)NC(=O)[C@@H](Cc3ccc4ccccc4c3)NC2=O)NC(=O)[C@@H](Cc2c[nH]c3ccccc23)NC(=O)[C@H](Cc2ccc(Cl)cc2)NC1=O
Ovulating rats (Rattus norvegicus [13]): 0
Ovulating rats (Rattus norvegicus [14]): 2
